# Source: article PMC4045134, “Discovery of Triterpenoids as Reversible Inhibitors of α/β-hydrolase Domain Containing 12 (ABHD12)” (PLoS ONE, 2014)
# Entries after “also recorded” stand apart in the source; their conditions may differ.
# Experiments:
# ABHD12 = molecular target: T1, ABHD12 (Mus musculus, UniProt Q99LR1); assay: Competitive ABPP with TAMRA-FP in mouse brain membrane proteome; format: biochemical; details: mouse brain membranes, 1 h inhibitor, 1 h probe
# T1 construct: the sole serine hydrolase targeted by the triterpenoids in native brain membrane proteome; from tissue; host or cells: mouse whole-brain membranes
# T1 sequence (Q99LR1 1-398): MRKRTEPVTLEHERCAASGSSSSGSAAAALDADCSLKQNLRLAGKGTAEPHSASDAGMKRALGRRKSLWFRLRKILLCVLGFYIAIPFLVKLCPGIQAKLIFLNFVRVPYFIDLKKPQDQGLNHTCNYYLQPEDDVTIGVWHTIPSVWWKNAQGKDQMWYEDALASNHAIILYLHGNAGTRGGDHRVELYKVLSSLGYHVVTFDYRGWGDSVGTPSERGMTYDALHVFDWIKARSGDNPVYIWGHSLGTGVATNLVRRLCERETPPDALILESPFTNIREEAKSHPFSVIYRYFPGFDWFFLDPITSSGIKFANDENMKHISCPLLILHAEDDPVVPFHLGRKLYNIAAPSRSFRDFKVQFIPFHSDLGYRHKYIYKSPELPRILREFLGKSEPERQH
# Method: (§1) Competitive ABPP using HEK293 cell lysates and mouse brain membranes was conducted to visualize effects of selected triterpenoids on the binding of the active site serine-targeting fluorescent fluorophosphonate probe TAMRA-FP following outlines of previous protocols, [31]. Briefly, lysates (25 µg) of HEK293 cells with or without (Mock) hABHD12 overexpression or mouse wholebrain membranes (100 µg) were treated for 1 h with DMSO or the inhibitor, after which TAMRA-FP labelling was conducted for 5 min (lysates) or 1 hour (membranes) at RT (final probe concentration 2 µM). The reaction was quenched by addition of gel loading buffer (followed by boiling for 5 min in the case of lysates), after which 10 µg protein (10 µl) was loaded per lane and the proteins were resolved in 10% SDS-PAGE together with standards. TAMRA-FP labeling was visualized (λex 552; λem 575 nm) by a fluorescent reader (FLA-3000 laser fluorescence scanner, Fujifilm, Tokyo, Japan). The intensity of bands was quantified using ImageJ, a freely available image analysis software (http://rsbweb.nih.gov/ij/).
# For ABPP experiments (Figure 6C) and cannabinoid receptor activity assays (Table S2), membranes prepared from brain tissue of 4-week-old male rodents were used. The animals were obtained from the National Laboratory Animal Centre, University of Eastern Finland. Approval for the harvesting of animal tissue was obtained from the local welfare officer of the University of Eastern Finland.
# [1] = tested on: metabolic serine hydrolases; assay: Competitive ABPP, other serine hydrolases of mouse brain membrane proteome; format: biochemical
# Method: as §1
# For ABPP experiments (Figure 6C) and cannabinoid receptor activity assays (Table S2), membranes prepared from brain tissue of 4-week-old male rodents were used. The animals were obtained from the National Laboratory Animal Centre, University of Eastern Finland. […]
compound,measurement,setting,value
"CC1(C)CC[C@]2(C(=O)O)CC[C@]3(C)C(=CC[C@@H]4[C@@]5(C)C[C@@H](O)[C@H](O)C(C)(C)[C@@H]5CC[C@]43C)[C@@H]2C1 [Compound 8, Maslinic acid, reference compound]",TAMRA-FP probe labeling of ABHD12,ABHD12,selectively inhibited probe labeling of ABHD12; also recorded: dose-dependently inhibit TAMRA-FP labeling of ABHD12 already at 20 µM
same,additional targets among the metabolic serine hydrolases,[1],no additional targets are evident
